From BindingDB's records for patent US10781211 (LUNDBECK LA JOLLA RESEARCH CENTER, INC., 2020)

target: T1, Monoglyceride lipase (Homo sapiens, UniProt Q99685); assay: In Vitro Competitive Activity-Based Protein Profiling Assay
T1 sequence (Q99685 whole entry): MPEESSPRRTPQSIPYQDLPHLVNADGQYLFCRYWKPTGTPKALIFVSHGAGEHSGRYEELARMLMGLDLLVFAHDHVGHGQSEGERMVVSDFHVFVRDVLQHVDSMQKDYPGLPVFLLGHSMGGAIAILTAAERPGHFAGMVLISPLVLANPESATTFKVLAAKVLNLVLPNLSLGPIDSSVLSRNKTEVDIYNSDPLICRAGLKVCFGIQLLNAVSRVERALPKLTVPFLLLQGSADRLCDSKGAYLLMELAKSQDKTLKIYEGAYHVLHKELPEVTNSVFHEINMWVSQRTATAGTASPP
Method: Human: Proteomes (human prefrontal cortex or cell membrane fractions) (50 μL, 1.0-2.0 mg/mL total protein concentration) were preincubated with varying concentrations of inhibitors at 37° C. After 30 min, FP-Rh or JW912 (1.0 μL, 50 μM in DMSO) was added and the mixture was incubated for another 30 min at room temperature. Reactions were quenched with SDS loading buffer (15 μL-4X) and run on SDS-PAGE.

Row | SMILES | IC50 [nM]
1 | O=C(OC(C(F)(F)F)C(F)(F)F)N1CCC2(CCN(Cc3cc(F)cc(N4CCCCC4)c3)C2)CC1 [US10781211, Example 233] | < 100
2 | O=C(OC(C(F)(F)F)C(F)(F)F)N1CCC2(CCN(Cc3ccc(C(F)(F)F)c(N4CCCCC4)c3)C2)CC1 [US10781211, Example 234] | < 100
3 | O=C(OC(C(F)(F)F)C(F)(F)F)N1CCC2(CCCN2Cc2cc(F)cc(N3CCCCC3)c2)CC1 [US10781211, Example 236] | < 100
4 | O=C(OC(C(F)(F)F)C(F)(F)F)N1CCC2(CCN(Cc3ccc(S(F)(F)(F)(F)F)cc3N3CCCCC3)C2)CC1 [US10781211, Example 241] | < 100
5 | O=C(OC(C(F)(F)F)C(F)(F)F)N1CCC2(CCCN2Cc2cc(CN3CCCCC3)cc(C(F)(F)F)c2)CC1 [US10781211, Example 244] | < 100
6 | O=C(OC(C(F)(F)F)C(F)(F)F)N1CCC2(CCN(Cc3cc(CN4CCCCC4)cc(C(F)(F)F)c3)C2)CC1 [US10781211, Example 245] | < 100
7 | CC1CN(c2cc(CN3CCC4(CCN(C(=O)OC(C(F)(F)F)C(F)(F)F)CC4)C3)cc(C(F)(F)F)c2)CCO1 (configuration not stated) [US10781211, Example 252] | < 100
8 | O=C(OC(C(F)(F)F)C(F)(F)F)N1CCC2(CCCN2Cc2ccc(C(F)(F)F)cc2CN2CCCC2)CC1 [US10781211, Example 262] | < 100
9 | O=C(OC(C(F)(F)F)C(F)(F)F)N1CCC2(CCCN2Cc2cc(N3CCCCC3)cc(S(F)(F)(F)(F)F)c2)CC1 [US10781211, Example 263] | < 100
10 | O=C(OC(C(F)(F)F)C(F)(F)F)N1CCC2(CCCN2Cc2cc(CN3CCCCC3)cc(OC(F)(F)F)c2)CC1 [US10781211, Example 269] | < 100
11 | O=C(OC(C(F)(F)F)C(F)(F)F)N1CCC2(CCCN2Cc2cc(CN3CCCC3)cc(OC(F)(F)F)c2)CC1 [US10781211, Example 270] | < 100
12 | O=C(OC(C(F)(F)F)C(F)(F)F)N1CCC2(CCN(Cc3cc(N4CCOCC4)cc(C(F)(F)F)c3)C2)CC1 [US10781211, Example 277] | < 100

The remaining lines, values ahead:

Row | IC50 [nM] | SMILES
13 | < 100 | O=C(OC(C(F)(F)F)C(F)(F)F)N1CCC2(CCN(Cc3ccc(C(F)(F)F)cc3N3CCCC3)C2)CC1 [US10781211, Example 201]
14 | < 100 | O=C(OC(C(F)(F)F)C(F)(F)F)N1CCC2(CCN(Cc3cc(N4CCCC4)cc(C(F)(F)F)c3)C2)CC1 [US10781211, Example 202]
15 | < 100 | O=C(OC(C(F)(F)F)C(F)(F)F)N1CCC2(CCCN2Cc2cc(N3CCCC3)cc(C(F)(F)F)c2)CC1 [US10781211, Example 203]
16 | < 100 | O=C(OC(C(F)(F)F)C(F)(F)F)N1CCC2(CCCN2Cc2cc(N3CCOCC3)cc(C(F)(F)F)c2)CC1 [US10781211, Example 204]
17 | < 100 | CC1CCCN(c2cc(C(F)(F)F)ccc2CN2CCC3(CCN(C(=O)OC(C(F)(F)F)C(F)(F)F)CC3)C2)C1 (configuration not stated) [US10781211, Example 216]
18 | < 100 | CC1CCN(c2cc(C(F)(F)F)ccc2CN2CCC3(CCN(C(=O)OC(C(F)(F)F)C(F)(F)F)CC3)C2)C1 (configuration not stated) [US10781211, Example 219]
19 | < 100 | CC1CCCN(c2cc(CN3CCCC34CCN(C(=O)OC(C(F)(F)F)C(F)(F)F)CC4)cc(C(F)(F)F)c2)C1 (configuration not stated) [US10781211, Example 221]
20 | < 100 | O=C(OC(C(F)(F)F)C(F)(F)F)N1CCC2(CCN(Cc3ccc(N4CCCCC4)c(C(F)(F)F)c3)C2)CC1 [US10781211, Example 228]
21 | < 100 | CC1CCN(c2cc(CN3CCC4(CCN(C(=O)OC(C(F)(F)F)C(F)(F)F)CC4)C3)cc(C(F)(F)F)c2)C1 (configuration not stated) [US10781211, Example 229]
22 | < 100 | O=C(OC(C(F)(F)F)C(F)(F)F)N1CCC2(CCN(Cc3cc(Cl)cc(N4CCCCC4)c3)C2)CC1 [US10781211, Example 232]
